Measured values reported in patent US20250353852A1, “COMPOUNDS AND COMPOSITIONS THAT INHIBIT PIKFYVE” (Kineta, Inc., priority 2021, published 2025).

Molecular target: full-length human PIKFYVE (Homo sapiens (Human), UniProt Q9Y2I7, L932S/Q1183K/Q995L/S1033A/S696N/T998S)
Assay: PIKfyve biochemical assay (ADP-Glo Kinase assay, Carna Biosciences)
Details: class symbols
Source text: PIKfyve Biochemical Assay. The biochemical […] inhibition assays were run by Carna Biosciences according to proprietary methodology based on the Promega […] Kinase assay. […] NP_055855.2] was expressed as N-terminal GST-fusion protein (265 kDa) using baculovirus expression system. GST-PIKFYVE was purified by using glutathione sepharose chromatography and used in an ADP-GloTM Kinase assay (Promega). Reactions were set up by adding the test compound solution, substrate solution, ATP solution and kinase solution, each at 4× final concentrations. Reactions were prepared with assay buffer (50 mM MOPS, 1 mM DTT, pH7.2), mixed, and incubated in black 384 well polystyrene plates for 1 hour at room temperature. ADP-Glo^TM reagent was then added for 40 minutes, followed by kinase detection reagent for an additional 40 minutes. The kinase activity was evaluated by detecting relative light units on a luminescence plate reader. […] IC50 values were calculated from concentration vs % inhibition curves by fitting to a four-parameter logistic curve. […] The biochemical […] inhibition assays were run by Carna Biosciences according to proprietary methodology based on the Promega ADP-GloTM Kinase assay. […] GST-PIKFYVE was purified by using glutathione sepharose chromatography and used in an ADP-GIoTM Kinase assay (Promega). Reactions were set up by adding the test compound solution, substrate solution, ATP solution and kinase solution, each at 4× final concentrations. Reactions were prepared with assay buffer (50 mM MOPS, 1 mM DTT, pH7.2), mixed, and incubated in black 384 well polystyrene plates for 1 hour at room temperature. ADP-GIoTM reagent was then added for 40 minutes, followed by kinase detection reagent for an additional 40 minutes. The kinase activity was evaluated by detecting relative light units on a luminescence plate reader. […] IC50 values were calculated from concentration vs % inhibition curves by fitting to a four-parameter logistic curve. […] The same compounds were also tested in both FAB1 and PIKFYVE TDP-43 yeast models.

Chain of full-length human PIKFYVE (Q9Y2I7 whole entry S696N/L932S/Q995L/T998S/S1033A/Q1183K): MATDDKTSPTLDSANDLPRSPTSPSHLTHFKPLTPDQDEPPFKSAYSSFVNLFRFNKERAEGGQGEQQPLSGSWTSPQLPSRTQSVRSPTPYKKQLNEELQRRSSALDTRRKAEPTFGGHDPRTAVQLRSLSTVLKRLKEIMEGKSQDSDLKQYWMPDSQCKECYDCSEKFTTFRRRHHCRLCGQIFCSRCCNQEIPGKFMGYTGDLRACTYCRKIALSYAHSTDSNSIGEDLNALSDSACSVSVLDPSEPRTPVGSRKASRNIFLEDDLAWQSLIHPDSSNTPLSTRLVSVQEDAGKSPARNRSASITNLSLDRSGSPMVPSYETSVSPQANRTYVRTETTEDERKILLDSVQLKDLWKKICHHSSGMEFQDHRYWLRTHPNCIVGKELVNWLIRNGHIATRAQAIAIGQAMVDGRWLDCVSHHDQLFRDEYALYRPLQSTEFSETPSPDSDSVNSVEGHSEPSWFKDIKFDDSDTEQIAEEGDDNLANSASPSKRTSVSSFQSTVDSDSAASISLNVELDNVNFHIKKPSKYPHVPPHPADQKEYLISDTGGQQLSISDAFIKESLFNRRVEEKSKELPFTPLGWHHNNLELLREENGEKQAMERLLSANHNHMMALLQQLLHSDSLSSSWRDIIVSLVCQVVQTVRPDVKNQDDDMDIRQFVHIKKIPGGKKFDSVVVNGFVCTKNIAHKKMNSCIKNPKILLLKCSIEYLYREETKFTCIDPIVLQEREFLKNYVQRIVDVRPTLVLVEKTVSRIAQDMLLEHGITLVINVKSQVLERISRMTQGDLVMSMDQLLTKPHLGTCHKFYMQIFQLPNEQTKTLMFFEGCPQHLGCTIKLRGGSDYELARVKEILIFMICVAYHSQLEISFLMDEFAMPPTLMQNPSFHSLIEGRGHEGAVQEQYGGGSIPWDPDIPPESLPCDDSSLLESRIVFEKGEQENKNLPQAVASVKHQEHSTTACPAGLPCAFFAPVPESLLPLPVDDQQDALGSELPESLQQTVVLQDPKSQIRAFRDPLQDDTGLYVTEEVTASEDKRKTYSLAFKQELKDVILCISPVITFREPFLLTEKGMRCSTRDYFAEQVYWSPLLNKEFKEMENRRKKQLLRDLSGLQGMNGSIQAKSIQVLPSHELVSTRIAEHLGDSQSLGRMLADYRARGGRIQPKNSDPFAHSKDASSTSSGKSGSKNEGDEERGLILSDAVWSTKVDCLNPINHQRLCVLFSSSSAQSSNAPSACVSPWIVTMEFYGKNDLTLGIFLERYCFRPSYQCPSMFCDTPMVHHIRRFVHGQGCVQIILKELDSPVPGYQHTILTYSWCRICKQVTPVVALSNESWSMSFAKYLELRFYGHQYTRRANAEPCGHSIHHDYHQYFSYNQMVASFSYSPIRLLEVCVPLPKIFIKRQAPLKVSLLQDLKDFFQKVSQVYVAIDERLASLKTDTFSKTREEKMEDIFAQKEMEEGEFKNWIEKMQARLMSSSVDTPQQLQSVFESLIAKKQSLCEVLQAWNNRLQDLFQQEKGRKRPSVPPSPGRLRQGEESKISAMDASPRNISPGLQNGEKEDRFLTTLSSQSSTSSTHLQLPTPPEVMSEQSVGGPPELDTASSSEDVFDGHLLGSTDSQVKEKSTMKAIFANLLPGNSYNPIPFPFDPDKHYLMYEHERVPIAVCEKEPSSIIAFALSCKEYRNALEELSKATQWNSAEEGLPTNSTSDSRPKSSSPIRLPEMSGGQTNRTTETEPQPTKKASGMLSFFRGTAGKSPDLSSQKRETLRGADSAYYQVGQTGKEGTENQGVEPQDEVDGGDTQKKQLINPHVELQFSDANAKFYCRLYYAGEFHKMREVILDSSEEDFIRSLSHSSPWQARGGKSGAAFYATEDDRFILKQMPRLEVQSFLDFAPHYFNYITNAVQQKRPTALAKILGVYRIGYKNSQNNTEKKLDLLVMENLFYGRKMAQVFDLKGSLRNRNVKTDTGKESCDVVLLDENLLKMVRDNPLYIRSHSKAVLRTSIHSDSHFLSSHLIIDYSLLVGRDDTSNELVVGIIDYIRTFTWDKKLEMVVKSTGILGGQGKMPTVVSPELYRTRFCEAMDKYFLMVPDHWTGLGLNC

Question: Which IC50 does the source give for `c1cc(-c2cc3nc(-n4ccc(C5CCCNC5)n4)cc(N4CCOCC4)n3n2)ccn1` (single isomer, unassigned) [Compound 76, 4-(5-(3-(piperidin-3-yl)-1H-pyrazol-1-yl)-2-(pyridin-4-yl)pyrazolo[1,5-a]pyrimidin-7-yl)morpholine] here?
Answer: 100 to 1000 nM

Question: `c1cncc(-n2ccc(-c3cc(N4CCOCC4)n4nc(-c5ccncc5)cc4n3)n2)c1` [Compound 13, 4-(5-(1-(pyridin-3-yl)-1H-pyrazol-3-yl)-2-(pyridin-4-yl)pyrazolo[1,5-a]pyrimidin-7-yl)morpholine] was tested. Which IC50 did it give?
Answer: 10 to 100 nM

Question: For `Fc1cc(N2CCOCC2)n2nc(-c3ccncc3)cc2n1` [Compound 29, 4-(5-fluoro-2-(pyridin-4-yl)pyrazolo[1,5-a]pyrimidin-7-yl)morpholine], which IC50 is on record?
Answer: 100 to 1000 nM

Question: `CC(C)(C)OC(=O)N1CCN(c2cc(N3CCOCC3)n3nc(-c4ccncc4)cc3n2)C(Cc2ccccc2)C1` (stereo not drawn) [Compound 116, tert-butyl 3-benzyl-4-(7-morpholino-2-(pyridin-4-yl)pyrazolo[1,5-a]pyrimidin-5-yl)piperazine-1-carboxylate] was tested. Which IC50 did it give?
Answer: 1000 to 10000 nM

Question: `c1ccc(C2CCCN(c3cc(N4CCOCC4)n4nc(-c5ccncc5)cc4n3)C2)cc1` (stereo not drawn) [Compound 34, 4-(5-(3-phenylpiperidin-1-yl)-2-(pyridin-4-yl)pyrazolo[1,5-a]pyrimidin-7-yl)morpholine] was tested. Which IC50 did it give?
Answer: 1000 to 10000 nM

Question: Which IC50 does the source give for `c1ccc(CC2COCCN2c2cc(N3CCOCC3)n3nc(-c4ccncc4)cc3n2)cc1` (stereo not drawn) [Compound 36, 3-benzyl-4-(7-morpholino-2-(pyridin-4-yl)pyrazolo[1,5-a]pyrimidin-5-yl)morpholine] here?
Answer: 1000 to 10000 nM

Question: How did the IC50 turn out when `c1cc(-c2cc3nc(-n4cc5c(n4)COCC5)cc(N4CCOCC4)n3n2)ccn1` [Compound 87, 2-(7-morpholino-2-(pyridin-4-yl)pyrazolo[1,5-a]pyrimidin-5-yl)-2,4,5,7-tetrahydropyrano[3,4-c]pyrazole] was run?
Answer: 1000 to 10000 nM

Question: Which IC50 does the source give for `Fc1cncc(-c2ccn(-c3cc(N4CCOCC4)n4nc(-c5ccncc5)cc4n3)n2)c1` [Compound 60, 4-(5-(3-(5-fluoropyridin-3-yl)-1H-pyrazol-1-yl)-2-(pyridin-4-yl)pyrazolo[1,5-a]pyrimidin-7-yl)morpholine] here?
Answer: 100 to 1000 nM

Question: Which IC50 does the source give for `Cc1cccc(C(=O)COc2cc(N3CCOCC3)n3nc(-c4ccncc4)cc3n2)c1` [Compound 125, 2-((7-morpholino-2-(pyridin-4-yl)pyrazolo[1,5-a]pyrimidin-5-yl)oxy)-1-(m-tolyl)ethan-1-one] here?
Answer: 1000 to 10000 nM

Question: For `N#Cc1cc(N2CCOCC2)n2nc(-c3ccncc3)cc2n1` [Compound 103, 7-morpholino-2-(pyridin-4-yl)pyrazolo[1,5-a]pyrimidine-5-carbonitrile], which IC50 is on record?
Answer: > 10000 nM

Question: For `c1cncc(-n2nccc2-c2cc(N3CCOCC3)n3nc(-c4ccncc4)cc3n2)c1` [Compound 12, 4-(5-(1-(pyridin-3-yl)-1H-pyrazol-5-yl)-2-(pyridin-4-yl)pyrazolo[1,5-a]pyrimidin-7-yl)morpholine], which IC50 is on record?
Answer: 1000 to 10000 nM

Question: For `O=C1CC(c2ccccc2)CN1c1cc(N2CCOCC2)n2nc(-c3ccncc3)cc2n1` (stereo not drawn) [Compound 25, 1-(7-morpholino-2-(pyridin-4-yl)pyrazolo[1,5-a]pyrimidin-5-yl)-4-phenylpyrrolidin-2-one], which IC50 is on record?
Answer: 1000 to 10000 nM

Question: `Fc1cccc(-c2nccc(-c3cc(N4CCOCC4)n4nc(-c5ccncc5)cc4n3)n2)c1` [Compound 139, 4-(5-(2-(3-fluorophenyl)pyrimidin-4-yl)-2-(pyridin-4-yl)pyrazolo[1,5-a]pyrimidin-7-yl)morpholine] was tested. Which IC50 did it give?
Answer: 100 to 1000 nM

Question: Which IC50 does the source give for `c1ccc(Cc2ncccc2-c2cc(N3CCOCC3)n3nc(-c4ccncc4)cc3n2)cc1` [Compound 39, 4-(5-(2-benzylpyridin-3-yl)-2-(pyridin-4-yl)pyrazolo[1,5-a]pyrimidin-7-yl)morpholine] here?
Answer: 1000 to 10000 nM

Question: For `c1nn(-c2cc(N3CCOCC3)n3nc(C4CCCO4)cc3n2)c2c1COCC2` (stereo not drawn) [Compound 100, 1-(7-morpholino-2-(tetrahydrofuran-2-yl)pyrazolo[1,5-a]pyrimidin-5-yl)-1,4,6,7-tetrahydropyrano[4,3-c]pyrazole], which IC50 is on record?
Answer: > 10000 nM
